# Columns and labels:
# [1] = In vitro cytotoxicity studies (CellTiter 96) with or without 690 nm light, PC3pip; assay type: cell-based, human; conditions: 24 h in the dark, no light; read-out: IC50 dark cytotoxicity, PC3pip cells
# Procedure: (§1) PC3pip and PC3flu cells were plated at 3,000 cells/well in 96-well plates. Twenty-four hours later, drugs (PSMA-1-MMAE-IR700 or PSMA-1-IR700) of different concentrations were added. After incubation at 37° C. in the dark for 24 h, cell viability was determined by CellTiter 96© aqueous one solution cell proliferation assay using absorbance at 490 nm (Promega Biotech, Madison, […]). The concentration required to inhibit 50% of cell growth (IC50) was determined by GraphPad Prism 3.0. To test the cytotoxicity of PSMA-1-MMAE-TR700 with light irradiation, drugs at a final concentration of 5 nM were added to cells and incubated in the dark for 24 h. Cells were then washed 3 times with RMPI 1640 and then irradiated with 690 nm light (L690-66-60, Marubeni America Co, New York, NY). Cells were incubated in the dark for another 24 h. Cell viability was then determined by CellTiter 96© aqueous one solution cell proliferation assay (Promega Biotech, Madison, […]). The coefficient drug interaction (CDI) was calculated as follows: CDI=AB/(A×B), where AB is the ratio of the absorbance of combination treatment groups (PSMA-1-MMAE-IR700 with light irradiation) to the absorbance of control groups; A or B is the absorbance of single treatment group (PSMA-1-MMAE-IR700 without light or PSMA-1-IR700 with light irradiation) to the absorbance of control groups. CDI <1, =1 and >1 indicates synergistic, additive or antagonistic effect.
# [2] = system: PSMA-positive PC3pip cells; assay: as above; assay type: cell-based, human; conditions: for ratio of absorbance to control groups (cell viability): 5 nM, 24 h
# Procedure: as §1
# [3] = system: orthotopic PC3pipGFP tumors; assay: Detection of orthotopic tumor and lymph node metastases; assay type: in vivo, mice; conditions: 100 nmol/kg, 1 h post injection
# Procedure: Orthotopic PC3pipGFP prostate cancer models were established as previously described using green fluorescence protein (GFP) transfected PC3pip cells. Mice bearing orthotopic PC3pipGFP tumors were injected with 100 nmol/kg of PSMA-1-MMAE-IR700. Mice were imaged at 1 h post injection by Maestro using the yellow filter set for PSMA-1-MMAE-IR700 and blue filter set for GFP (excitation 445-490 nm, emission 515 nm longpass). Mice were then euthanized and primary tumor was removed to expose lymph nodes. The mice were imaged again. Resected primary tumor and lymph nodes were snap-frozen in optimal cutting temperature (OCT) compound and sectioned. The slides were subjected to hematoxylin and eosin (H&E) staining, and adjacent set of slides were counter stained with DAPI and observed under Leica DM4000B fluorescence microscope at 10× to visualize DAPI, GFP and PSMA-1-MMAE-IR700. Experiments were repeated in three mice.
# PC3pip tumors = assay: In vivo antitumor efficacy studies with PDT; parameters: species or system mice
# Procedure: The effect of PSMA-1-MMAE-IR700 were tested in mice bearing PC3pip tumors. Animals with tumor size at about 100 mm3 were used for the study (tumor volume=Length×width2/2). Animals were divided into 7 groups: (1) mice receiving PBS; (2) mice receiving 100 nmol/kg PSMA-1-MMAE-IR700 with PDT; (3) mice receiving equal doses of PSMA-1-MMAE-IR700 to group 2, but not receiving PDT; (4) Mice receiving equal doses of PSMA-1-IR700 to group 2 with PDT treatment; (5) Mice receiving equal doses of PSMA-1-IR700 to group 2 without PDT; (6) mice receiving equal doses of PSMA-1-IR700 to group 2+free MMAE with PDT (MMAE normalized to that delivered by PSMA-1-MMAE-IR700); and (7) mice receiving equal doses of PSMA-1-IR700 to group 2+free MMAE without PDT. Each group had 5 mice. Animals received drugs through tail vein injection on day 0, 4, 8, 12 and 16 and treated with 50 J/cm2 of 690 nm light at 1 h post-injection on these injection days. The dose and schedule was based on previous PSMA-1-VcMMAE work and were not optimized. Animals were imaged before and after PDT. Mice were monitored every other day for 90 days. Animals were euthanized when tumors became too large (diameter >20 mm) or animals were moribund. Data were reported as body weight over time, tumor size over time and Kaplan-Meier survival plots.
# [4] = Pharmacokinetic studies based on fluorescence; assay type: in vivo, mice; conditions: after 4 h post injection almost all drug was cleared
# From the text: Prostate cancer is highly heterogeneous, which will affect treatment response, drug resistance and clinical outcome. The use of combination therapies with different mechanisms of action will offer potential advantages over a single therapy and it can be an effective way to deal with the ‘heterogeneity’ of cancer cells. […] The use of anticancer drugs is therefore limited by unwanted side effects. To overcome these problems, we have developed a multifunctional molecule named PSMA-1-MMAE-IR700 that combines chemotherapy, PDT, and imaging in a single molecule that is targeted to PSMA. PSMA is over expressed almost exclusively on prostate cancer (FIG. 6A). MMAE was selected as the chemotherapeutic drug because of its high potency, its wide use in antibody drug conjugates, its synergy with PDT and the fact that we have successfully targeted it to PSMA for the treatment of prostate cancer with a greater therapeutic index when compared to a PSMA-targeted antibody drug conjugate using MMAE. IR700 was selected as the photosensitizer due to its good water-solubility, its high fluorescence quantum yield and singlet oxygen yield, its long wavelength absorption (690 nm), and the fact that a cetuximab-IR700 conjugate (RM-1929) has been approved in Japan for local regional treatment of head and neck cancer. […] The fluorescence from IR700 allowed visualization of uptake studies of PSMA-1-MMAE-IR700. […]
smiles,measurement,setting,value
CC[C@H](C)[C@@H]([C@@H](CC(=O)N1CCC[C@H]1[C@H](OC)[C@@H](C)C(=O)N[C@H](C)[C@@H](O)c1ccccc1)OC)N(C)C(=O)[C@@H](NC(=O)[C@H](C(C)C)N(C)C(=O)OCc1ccc(NC(=O)[C@H](CCCNC(N)=O)NC(=O)[C@@H](NC(=O)CCCCCN2C(=O)CC(SC[C@H](NC(=O)[C@H](CCC(=O)O)NC(=O)[C@H](CCC(=O)O)NC(=O)[C@H](CCC(=O)O)NC(=O)CCCCCNC(=O)[C@H]3CC[C@H](CNC(=O)CC[C@H](NC(=O)N[C@@H](CCC(=O)O)C(=O)O)C(=O)O)CC3)C(=O)NCCCCCC(=O)N[C@@H](CCCCNC(=O)CCCCCNC(=O)OCCCOc3cccc4c5n6c(c34)=NC3=NC(=Nc4c7ccccc7c(n4[Si]6(O[Si](C)(C)CCC[N+](CCCS(=O)(=O)[O-])(CCCS(=O)(=O)O)CCCS(=O)(=O)O)O[Si](C)(C)CCC[N+](CCCS(=O)(=O)[O-])(CCCS(=O)(=O)O)CCCS(=O)(=O)O)N=C4N=C(N=5)c5ccccc54)c4ccccc43)C(N)=O)C2=O)C(C)C)cc1)C(C)C (some centres unmarked) [PSMA-1-MMAE-IR700],IC50,[1],8.42 ± 1.03 nM
same,ratio of absorbance to control groups (cell viability),[2]; 690 nm light 1 J/cm2,0.423
same,ratio of absorbance to control groups (cell viability),[2]; 690 nm light 3 J/cm2,0.208
same,ratio of absorbance to control groups (cell viability),[2]; without light,0.892
same,coefficient drug interaction (CDI),[2]; 1 J/cm2 light irradiation,0.609
same,coefficient drug interaction (CDI),[2]; 3 J/cm2 light irradiation,0.550
same,selectivity of killing PC3pip versus PC3flu cells,[2]; 72 h in the dark,50 fold
same,fluorescence signal in primary tumor and lymph node histology,[3],only observed in cancer tissues
same,"tumor growth, with light irradiation (PDT)","PC3pip tumors; 100 nmol/kg every 4 days, 5 doses, 50 J/cm^2 of 690 nm light",greatest tumor growth inhibition
same,"tumor growth, no light treatment","PC3pip tumors; 100 nmol/kg every 4 days, 5 doses, no light",significantly inhibited tumor growth
same,cure rate for tumors,"PC3pip tumors; 100 nmol/kg with light irradiation, 90-day period",60%
same,histological analysis of major organs on day 30,"PC3pip tumors; liver, lung, heart, spleen, kidney, salivary gland and prostate",did not cause systemic toxicity
same,body weight loss,PC3pip tumors; treatment groups,did not cause any body weight loss
same,clearance from the blood,[4],cleared quickly from the blood

# Reference: patent US20250332265A1, “PSMA TARGETED CONJUGATE COMPOUNDS AND USES THEREOF” (priority 2021, published 2025)
